Data taken from patent US3985779A, “M-phenoxyphenyl propionic acid derivatives and preparation thereof” (Eisai Co., Ltd., priority 1973, dated 1976).
Read-outs that look alike come from different tables or passages of the source.

Key:
[1] = system: ARRS-induced edema; assay: Inhibitory activity on anti-rat-rabbit serum (ARRS)-induced edema in rats (Experiment D); assay type: in vivo
Description: Inhibitory activity on anti-rat-rabbit serum (ARRS)-induced edema in rats Similar Experiments was carried out by using ARRS as irritant substance.

[2] = system: Carrageenin-induced edema; assay: Inhibitory activity on Carrageenin-induced Edema in rats (Experiment A); assay type: in vivo, rats (male Wistar); conditions: 3 hours after Carrageenin
Description: Inhibitory activity on Carrageenin-induced Edema in rats
Carrageenin was used as the agent for inducing edema and 5 male rats of Wistar strain having body weight of about 150 grs. after fasting for 16-17 hours were used as test animals. The inhibitory activity of the test compounds were determined with the paw edema method in accordance with Winter C. A. et al; Proc. Soc. Exp. Biol. Med. 111, 544 (1962).
The compounds were suspended in an aqueous solution of gum arabic and the same were orally administered to the rats at 1 hour before the injection of Carrageenin.
The observation was effected by measuring, after 3 hours the administration of the Carrageenin, the enlarged volumes of hind paw of the rats.

[3] = system: Kaolin-induced edema; assay: Inhibitory activity on Kaolin-induced Edema in Rats (Experiment B); assay type: in vivo
[4] = system: stomachs of the rats; assay type: in vivo; conditions: 50 mg/kg oral; score 0 (nothing unusual) to 10 (considerable irritability with bleeding)
Description: Observation of gastric irritability
Gastric irritability due to oral administration of the compounds as edema inhibitory agent was studied by macroscopical observation of the dissected stomachs of the rats which had been employed for determination of the edema inhibitions mentioned in the preceding paragraphs. The degrees of the irritability observed were scored in the 0 to 10 ratings depending upon the extent of errosions and bleedings of the stomachs, wherein the rating of 0(zero) means "nothing unusual", the rating of 10 means a state of considerable gastric irritability with bleeding and the remainders mean the intermediate degree of gastric irritability.

[5] = system: Dextran-induced edema; assay: Inhibitory activity on dextran-induced edema in rats (Experiment C); assay type: in vivo
Description: Inhibitory activity on dextran-induced edema in rats Experiment was carried out in the manner same as those of the preceding Experiments in which dextran was employed as irritant substance.

[6] = system: yeast-induced pyrexia; assay: Antipyretic activity to the yeast-treated rats (Experiment I); assay type: in vivo, rats (Wistar strain male)
Description: To Wistar strain male rats having about 300 - 350 grs. body weight, an aqueous suspension of yeast was subcutaneously injected to induce pyrexia.
At the lapse of 4 hours since the dose of the yeast suspension, the compounds under test given in hereinaftermentioned Table 10 in a form of suspension in a 5% gum arabic aqueous solution are orally administered. The rectal temperatures of the rats were measured periodically by means of a thermister-type thermometer sold by Japan Koden K.K. As control, said 5% gum arabic aqueous solution alone was administered.

[7] = system: Adjuvant-induced arthritis; assay: Inhibitory activity on Adjuvant arthritis in rats (Experiment E); assay type: in vivo
Description: The inflammatory score and the volumes of the right and left paws of the rats were observed.

[8] = system: writhing syndrome; assay: Analgesic activity: antagonism to acetic acid writhing syndrome in mice (Experiment J); assay type: in vivo, mice (dd strain male)
Description: Analgesic activity of the compound of the present invention in comparison with the known compounds.
Analgesic activity of the compound was tested as the measure of antagonism to writhing syndrome appeared when 0.1 ml/10g of 0.7% acetic acid was intraperitoneally injected to the dd strain male mice having 17 - 20 grs. body weight which had been abstinence from food for 18 hours.
The compounds under test were orally administered in a form of suspension in a 5% aqueous solution of gum arabic. After one hour from the administration, the onset times required for the writhing syndrome were scored.
In another Experiment in the combined use of the compounds under test and Codeine phosphate, 10 - 20 mg/kg of Codeine phosphate were orally administered immediatly after the oral administration of the compounds under test.

[9] = system: granuloma induced by Formalin Filter paper Pellet; conditions: for Adrenal / Granuloma-Wet-Weight (in words) / Thymus: 6 days
[10] = in vivo; conditions: mouse, po
Description: Comparison of toxicity of the phenyl propionic acid derivatives of the present invention and that of the other known anti-inflammatory agents was carried out in mice.

[11] = daily oral 40 mg/kg for 9 days, final

Compound: CC(C(=O)O)c1cccc(Oc2ccccc2)c1 (stereo not shown) [Compound (2), reference compound]
- % of Inhibition ([1]; after 2 hrs, oral 8 mg/kg): 7%
- Edema D. ± S.E. ([1]; after 2 hrs, oral 8 mg/kg): .634 ± .048
- % of Inhibition ([1]; after 2 hrs, oral 40 mg/kg): 19%
- Edema D. ± S.E. ([1]; after 2 hrs, oral 40 mg/kg): .553 ± .038
- % of Inhibition ([1]; after 3 hrs, oral 8 mg/kg): 16%
- Edema D. ± S.E. ([1]; after 3 hrs, oral 8 mg/kg): .599 ± .040
- % of Inhibition ([1]; after 3 hrs, oral 40 mg/kg): 26%
- Edema D. ± S.E. ([1]; after 3 hrs, oral 40 mg/kg): .531 ± .026
- % of Inhibition ([2]; oral 8.0 mg/kg): 31%
- Edema density ± S.E. ([2]; oral 8.0 mg/kg): .373 ± .039
- % of Inhibition ([2]; oral 10.0 mg/kg, 10 mg/kg): 35%
- Edema density ± S.E. ([2]; oral 10.0 mg/kg, 10 mg/kg): .352 ± .063
- Edema D. ± S.E. ([3]; after 3 hrs, oral 8 mg/kg): .418 ± .040
- % of Inhibition ([3]; after 3 hrs, oral 40 mg/kg): 49%
- Edema D. ± S.E. ([3]; after 3 hrs, oral 40 mg/kg): .212 ± .023
- % of Inhibition ([3]; after 5 hrs, oral 8 mg/kg): 11%
- Edema D. ± S.E. ([3]; after 5 hrs, oral 8 mg/kg): .499 ± .048
- % of Inhibition ([3]; after 5 hrs, oral 40 mg/kg): 48%
- Edema D. ± S.E. ([3]; after 5 hrs, oral 40 mg/kg): .292 ± .031
- Edema D. ± S.E. ([3]; after 7 hrs, oral 8 mg/kg): .612 ± .067
- % of Inhibition ([3]; after 7 hrs, oral 40 mg/kg): 33%
- Edema D. ± S.E. ([3]; after 7 hrs, oral 40 mg/kg): .406 ± .057
- Degree of gastric irritability [4]: 3
- % of Inhibition ([5]; after 2 hrs, oral 8 mg/kg): 5%
- Edema D. ± S.E. ([5]; after 2 hrs, oral 8 mg/kg): .795 ± .031
- % of Inhibition ([5]; after 2 hrs, oral 40 mg/kg): 1%
- Edema D. ± S.E. ([5]; after 2 hrs, oral 40 mg/kg): .846 ± .013
- % of Inhibition ([5]; after 3 hrs, oral 8 mg/kg): 1%
- Edema D. ± S.E. ([5]; after 3 hrs, oral 8 mg/kg): .749 ± .026
- % of Inhibition ([5]; after 3 hrs, oral 40 mg/kg): -3%
- Edema D. ± S.E. ([5]; after 3 hrs, oral 40 mg/kg): .773 ± .027

Compound: CC(C)Cc1ccc(C(C)C(=O)O)cc1 (stereo not shown) [Ibuprofen, 2,4'-isobutylphenylpropionic acid, reference compound]
- Change in rectal temperature, mean ± S.E. ([6]; 1 hr, 1.25 mg/kg p.o.): +0.03 ± 0.05
- Change in rectal temperature, mean ± S.E. ([6]; 1 hr, 5 mg/kg p.o.): -0.75 ± 0.09
- Change in rectal temperature, mean ± S.E. ([6]; 1 hr, 20 mg/kg p.o.): -0.65 ± 0.18
- Change in rectal temperature, mean ± S.E. ([6]; 1 hr, 80 mg/kg p.o.): -0.70 ± 0.25
- Change in rectal temperature, mean ± S.E. ([6]; 1 hr, 160 mg/kg p.o.): -0.70 ± 0.08
- Change in rectal temperature, mean ± S.E. ([6]; 3 hrs, 1.25 mg/kg p.o.): +0.05 ± 0.12
- Change in rectal temperature, mean ± S.E. ([6]; 3 hrs, 5 mg/kg p.o.): -0.80 ± 0.21
- Change in rectal temperature, mean ± S.E. ([6]; 3 hrs, 20 mg/kg p.o.): -0.93 ± 0.13
- Change in rectal temperature, mean ± S.E. ([6]; 3 hrs, 80 mg/kg p.o.): -1.03 ± 0.19
- Change in rectal temperature, mean ± S.E. ([6]; 3 hrs, 160 mg/kg p.o.): -0.95 ± 0.28
- Change in rectal temperature, mean ± S.E. ([6]; 5 hrs, 1.25 mg/kg p.o.): -0.18 ± 0.12
- Change in rectal temperature, mean ± S.E. ([6]; 5 hrs, 5 mg/kg p.o.): -0.20 ± 0.33
- Change in rectal temperature, mean ± S.E. ([6]; 5 hrs, 20 mg/kg p.o.): -0.95 ± 0.15
- Change in rectal temperature, mean ± S.E. ([6]; 5 hrs, 80 mg/kg p.o.): -0.90 ± 0.22
- Change in rectal temperature, mean ± S.E. ([6]; 5 hrs, 160 mg/kg p.o.): -1.03 ± 0.29
- minimal effective dose ([6]; Rattus norvegicus, po, read-out: dose with apparent antipyretic activity): > 5 mg/kg
- dose with maximum antipyretic activity ([6]; p.o.): 20 mg/kg
- % of Inhibition ([1]; after 2 hrs, oral 8 mg/kg): 10%
- Edema D. ± S.E. ([1]; after 2 hrs, oral 8 mg/kg): .615 ± .062
- % of Inhibition ([1]; after 2 hrs, oral 40 mg/kg): 10%
- Edema D. ± S.E. ([1]; after 2 hrs, oral 40 mg/kg): .608 ± .047
- % of Inhibition ([1]; after 3 hrs, oral 8 mg/kg): 12%
- Edema D. ± S.E. ([1]; after 3 hrs, oral 8 mg/kg): .627 ± .049
- % of Inhibition ([1]; after 3 hrs, oral 40 mg/kg): 27%
- Edema D. ± S.E. ([1]; after 3 hrs, oral 40 mg/kg): .520 ± .026
- % of Inhibition ([3]; after 3 hrs, oral 8 mg/kg): 25%
- Edema D. ± S.E. ([3]; after 3 hrs, oral 8 mg/kg): .313 ± .093
- % of Inhibition ([3]; after 3 hrs, oral 40 mg/kg): 36%
- Edema D. ± S.E. ([3]; after 3 hrs, oral 40 mg/kg): .267 ± .055
- % of Inhibition ([3]; after 5 hrs, oral 8 mg/kg): 20%
- Edema D. ± S.E. ([3]; after 5 hrs, oral 8 mg/kg): .450 ± .075
- % of Inhibition ([3]; after 5 hrs, oral 40 mg/kg): 29%
- Edema D. ± S.E. ([3]; after 5 hrs, oral 40 mg/kg): .401 ± .068
- % of Inhibition ([3]; after 7 hrs, oral 8 mg/kg): 6%
- Edema D. ± S.E. ([3]; after 7 hrs, oral 8 mg/kg): .571 ± .046
- % of Inhibition ([3]; after 7 hrs, oral 40 mg/kg): 15%
- Edema D. ± S.E. ([3]; after 7 hrs, oral 40 mg/kg): .514 ± .105
- inhibitory effect on edema ([3]; oral 40 - 50 mg/kg): 15%
- Final Score, Mean, left paw [7, 11]: 2.2
- Final Score, Mean, right paw [7, 11]: 3.8
- Final Score, Total, left paw [7, 11]: 11
- Final Score, Total, right paw [7, 11]: 19
- Initial Score, Mean, left paw ([7]; daily oral 40 mg/kg, initial): 1.8
- Initial Score, Mean, right paw ([7]; daily oral 40 mg/kg, initial): 3.8
- Initial Score, Total, left paw ([7]; daily oral 40 mg/kg, initial): 9
- Initial Score, Total, right paw ([7]; daily oral 40 mg/kg, initial): 19
- Onset time of writhing syndrome, mean ± S.E. ([8]; 10 mg/kg p.o. combined with Codeine Phosphate 10 mg/kg): 4.4 ± 0.3 min
- Onset time of writhing syndrome, mean ± S.E. ([8]; 10 mg/kg p.o. combined with Codeine Phosphate 20 mg/kg): 9.2 ± 1.4 min
- Onset time of writhing syndrome, mean ± S.E. ([8]; 20 mg/kg p.o. combined with Codeine Phosphate 10 mg/kg): 6.0 ± 1.1 min
- Onset time of writhing syndrome, mean ± S.E. ([8]; 20 mg/kg p.o. combined with Codeine Phosphate 20 mg/kg): 6.1 ± 0.4 min
- Onset time of writhing syndrome, mean ± S.E. ([8]; 40 mg/kg p.o. combined with Codeine Phosphate 10 mg/kg): 8.0 ± 1.6 min
- Onset time of writhing syndrome, mean ± S.E. ([8]; 40 mg/kg p.o. combined with Codeine Phosphate 20 mg/kg): 11.0 ± 1.4 min
- Onset time of writhing syndrome, mean ± S.E. ([8]; 80 mg/kg p.o. combined with Codeine Phosphate 10 mg/kg): 9.2 ± 1.3 min
- Onset time of writhing syndrome, mean ± S.E. ([8]; 80 mg/kg p.o. combined with Codeine Phosphate 20 mg/kg): 13.3 ± 0.8 min
- minimal effective dose ([8]; Mus musculus, 1 h, single oral administration, read-out: dose with significant antagonism / retardation of writhing syndrome): 80 mg/kg
- Onset time of writhing syndrome, mean ± S.E. ([8]; test compound alone, 10 mg/kg p.o.): 5.5 ± 1.4 min
- Onset time of writhing syndrome, mean ± S.E. ([8]; test compound alone, 20 mg/kg p.o.): 5.6 ± 1.4 min
- Onset time of writhing syndrome, mean ± S.E. ([8]; test compound alone, 40 mg/kg p.o.): 4.5 ± 0.4 min
- Onset time of writhing syndrome, mean ± S.E. ([8]; test compound alone, 80 mg/kg p.o.): 6.5 ± 1.1 min
- Adrenal ([9]; daily oral 8 mg/kg): 39.2 mg
- Granuloma-Wet-Weight (in words) ([9]; daily oral 8 mg/kg): Non Effective
- Thymus ([9]; daily oral 8 mg/kg): 631 mg
- Adrenal ([9]; daily oral 40 mg/kg): 34.3 mg
- Granuloma-Wet-Weight (in words) ([9]; daily oral 40 mg/kg): Non Effective
- Thymus ([9]; daily oral 40 mg/kg): 471 mg
- inhibitory activity on granuloma (in words) ([9]; oral 8 and 40 mg/kg/day for successive 6 days): entirely not effective
- % of Inhibition ([5]; after 2 hrs, oral 8 mg/kg): 5%
- Edema D. ± S.E. ([5]; after 2 hrs, oral 8 mg/kg): .791 ± .038
- % of Inhibition ([5]; after 2 hrs, oral 40 mg/kg): 9%
- Edema D. ± S.E. ([5]; after 2 hrs, oral 40 mg/kg): .760 ± .075
- % of Inhibition ([5]; after 3 hrs, oral 8 mg/kg): 9%
- Edema D. ± S.E. ([5]; after 3 hrs, oral 8 mg/kg): .683 ± .024
- % of Inhibition ([5]; after 3 hrs, oral 40 mg/kg): 6%
- Edema D. ± S.E. ([5]; after 3 hrs, oral 40 mg/kg): .705 ± .056

Compound: COc1ccc2c(c1)c(CC(=O)O)c(C)n2C(=O)c1ccc(Cl)cc1 [INDOMETHACIN]
- LD50 [10]: 37.5 mg/kg
